Key:
Format in all cases: in vivo
Conditions in all cases: evaluated after 13 days
[1] = system: Amaranthus retoflexus (AMARE); experiment: Post-emergence herbicide test, glasshouse, percentage damage
Method: (§1) Seeds of a variety of test species are sown in standard soil in pots (Lolium perenne (LOLPE), Solanum nigrum (SOLNI), Amaranthus retoflexus (AMARE), Setaria faberi (SETFA), Echinochloa crus-galli (ECHCG), Ipomoea hederacea (IPOHE)). After cultivation for one day (pre-emergence) or after 8 days cultivation (post-emergence) under controlled conditions in a glasshouse (at 24/16° C., day/night; 14 hours light; 65% humidity), the plants are sprayed with an aqueous spray solution derived from the formulation of the technical active ingredient in acetone/water (50:50) solution containing 0.5% Tween 20 (polyoxyethelyene sorbitan monolaurate, CAS RN 9005-64-5). Compounds are applied at 500 g/ha unless otherwise stated. The test plants are then grown in a glasshouse under controlled conditions in a glasshouse (at 24/16° C., day/night; 14 hours light; 65% humidity) and watered twice daily. After 13 days for pre and post-emergence, the test is evaluated for the percentage damage caused to the plant. The biological activities are shown in the following table on a five point scale (5=81-100%; 4=61-80%; 3=41-60%; 2=21-40%; 1=0-20%).

[2] = system: Echinochloa crus-galli (ECHCG); experiment: as above
Method: as §1

[3] = system: Ipomoea hederacea (IPOHE); experiment: as above
Method: as §1

Lolium perenne (LOLPE) [4] = experiment: as above
Method: as §1

Setaria faberi (SETFA) [5] = experiment: as above
Method: as §1

Solanum nigrum (SOLNI) [6] = experiment: as above
Method: as §1

[7] = system: Amaranthus retoflexus (AMARE); experiment: Pre-emergence herbicide test, glasshouse, percentage damage
Method: as §1

[8] = system: Echinochloa crus-galli (ECHCG); experiment: as above
Method: as §1

[9] = system: Ipomoea hederacea (IPOHE); experiment: as above
Method: as §1

Lolium perenne (LOLPE) [10] = experiment: as above
Method: as §1

Setaria faberi (SETFA) [11] = experiment: as above
Method: as §1

Solanum nigrum (SOLNI) [12] = experiment: as above
Method: as §1

SMILES	percentage damage caused to the plant, AMARE ([1]; 500 g/ha)	percentage damage caused to the plant, ECHCG ([2]; 500 g/ha)	percentage damage caused to the plant, IPOHE ([3]; 500 g/ha)	percentage damage caused to the plant, LOLPE (Lolium perenne (LOLPE) [4]; 500 g/ha)	percentage damage caused to the plant, SETFA (Setaria faberi (SETFA) [5]; 500 g/ha)	percentage damage caused to the plant, SOLNI (Solanum nigrum (SOLNI) [6]; 500 g/ha)	Pre-emergence Test AMARE percentage damage (five point scale) ([7]; rate 500 g/ha)	Pre-emergence Test ECHCG percentage damage (five point scale) ([8]; rate 500 g/ha)	Pre-emergence Test IPOHE percentage damage (five point scale) ([9]; rate 500 g/ha)	Pre-emergence Test LOLPE percentage damage (five point scale) (Lolium perenne (LOLPE) [10]; rate 500 g/ha)	Pre-emergence Test SETFA percentage damage (five point scale) (Setaria faberi (SETFA) [11]; rate 500 g/ha)	Pre-emergence Test SOLNI percentage damage (five point scale) (Solanum nigrum (SOLNI) [12]; rate 500 g/ha)	percentage damage caused to the plant, AMARE ([1]; 250 g/ha)	percentage damage caused to the plant, ECHCG ([2]; 250 g/ha)	percentage damage caused to the plant, IPOHE ([3]; 250 g/ha)	percentage damage caused to the plant, SETFA (Setaria faberi (SETFA) [5]; 250 g/ha)	Pre-emergence Test AMARE percentage damage (five point scale) ([7]; rate 250 g/ha)	Pre-emergence Test ECHCG percentage damage (five point scale) ([8]; rate 250 g/ha)	Pre-emergence Test IPOHE percentage damage (five point scale) ([9]; rate 250 g/ha)	Pre-emergence Test SETFA percentage damage (five point scale) (Setaria faberi (SETFA) [11]; rate 250 g/ha)	also measured
Fc1cc(Cl)cnc1Oc1cccc(F)c1-c1cc(C(F)F)no1 [Compound A1, 5-[2-[(5-CHLORO-3-FLUORO-2-PYRIDYL)OXY]-6-FLUORO-PHENYL]-3-(DIFLUOROMETHYL)ISOXAZOLE]	5 (5=81-100%)	5 (5=81-100%)	5 (5=81-100%)	5 (5=81-100%)	5 (5=81-100%)	5 (5=81-100%)	5 (5=81-100%)	5 (5=81-100%)	5 (5=81-100%)	5 (5=81-100%)	5 (5=81-100%)	5 (5=81-100%)	–	–	–	–	–	–	–	–	–
O=[N+]([O-])c1ccc(Oc2cccc(F)c2-c2cc(C(F)F)no2)nc1 [Compound A2, 3-(DIFLUOROMETHYL)-5-[2-FLUORO-6-[(5-NITRO-2-PYRIDYL)OXY]PHENYL]ISOXAZOLE]	5 (5=81-100%)	5 (5=81-100%)	4 (4=61-80%)	5 (5=81-100%)	5 (5=81-100%)	5 (5=81-100%)	5 (5=81-100%)	5 (5=81-100%)	2 (2=21-40%)	4 (4=61-80%)	5 (5=81-100%)	4 (4=61-80%)	–	–	–	–	–	–	–	–	–
Fc1cc(Cl)cnc1Oc1cccc(F)c1-c1ncc(C(F)(F)F)o1 [Compound A3, 2-[2-[(5-CHLORO-3-FLUORO-2-PYRIDYL)OXY]-6-FLUORO-PHENYL]-5-(TRIFLUOROMETHYL)OXAZOLE]	2 (2=21-40%)	1 (1=0-20%)	1 (1=0-20%)	1 (1=0-20%)	4 (4=61-80%)	3 (3=41-60%)	3 (3=41-60%)	3 (3=41-60%)	1 (1=0-20%)	1 (1=0-20%)	3 (3=41-60%)	3 (3=41-60%)	–	–	–	–	–	–	–	–	–
Fc1cccc(Oc2ncc(Cl)cc2Cl)c1-c1cc(C(F)F)no1 [Compound A4]	5 (5=81-100%)	1 (1=0-20%)	1 (1=0-20%)	1 (1=0-20%)	3 (3=41-60%)	5 (5=81-100%)	3 (3=41-60%)	2 (2=21-40%)	1 (1=0-20%)	1 (1=0-20%)	2 (2=21-40%)	3 (3=41-60%)	–	–	–	–	–	–	–	–	–
Fc1cccc(Oc2ccc(C(F)(F)F)cn2)c1-c1cc(C(F)F)no1 [Compound A6]	4 (4=61-80%)	5 (5=81-100%)	3 (3=41-60%)	4 (4=61-80%)	5 (5=81-100%)	5 (5=81-100%)	5 (5=81-100%)	4 (4=61-80%)	2 (2=21-40%)	4 (4=61-80%)	5 (5=81-100%)	5 (5=81-100%)	–	–	–	–	–	–	–	–	–
Fc1cccc(Oc2cccc(F)c2-c2cc(C(F)F)no2)n1 [Compound A7]	2 (2=21-40%)	4 (4=61-80%)	2 (2=21-40%)	2 (2=21-40%)	5 (5=81-100%)	5 (5=81-100%)	5 (5=81-100%)	4 (4=61-80%)	1 (1=0-20%)	1 (1=0-20%)	4 (4=61-80%)	5 (5=81-100%)	–	–	–	–	–	–	–	–	–
Fc1cc(Cl)cnc1Oc1cccc(I)c1-n1cc(C(F)(F)F)cn1 [Compound A57, 5-chloro-3-fluoro-2-[3-iodo-2-[4-(trifluoromethyl)pyrazol-1-yl]phenoxy]pyridine]	–	–	–	–	–	–	–	–	–	–	–	–	–	–	–	–	–	–	–	–	percentage damage caused to the plant, AMARE ([1]; 1000 g/ha): 5 (5=81-100%); percentage damage caused to the plant, ECHCG ([2]; 1000 g/ha): 1 (1=0-20%); percentage damage caused to the plant, IPOHE ([3]; 1000 g/ha): 2 (2=21-40%); percentage damage caused to the plant, LOLPE (Lolium perenne (LOLPE) [4]; 1000 g/ha): 1 (1=0-20%); percentage damage caused to the plant, SETFA (Setaria faberi (SETFA) [5]; 1000 g/ha): 4 (4=61-80%); percentage damage caused to the plant, SOLNI (Solanum nigrum (SOLNI) [6]; 1000 g/ha): 5 (5=81-100%); Pre-emergence Test AMARE percentage damage (five point scale) ([7]; rate 1000 g/ha): 5 (5=81-100%); Pre-emergence Test ECHCG percentage damage (five point scale) ([8]; rate 1000 g/ha): 1 (1=0-20%); Pre-emergence Test LOLPE percentage damage (five point scale) (Lolium perenne (LOLPE) [10]; rate 1000 g/ha): 1 (1=0-20%); Pre-emergence Test SETFA percentage damage (five point scale) (Setaria faberi (SETFA) [11]; rate 1000 g/ha): 5 (5=81-100%); Pre-emergence Test SOLNI percentage damage (five point scale) (Solanum nigrum (SOLNI) [12]; rate 1000 g/ha): 4 (4=61-80%)
Fc1cc(Cl)cnc1Oc1ccccc1-c1ccc(Cl)s1 [Compound A66, 5-chloro-2-[2-(5-chloro-2-thienyl)phenoxy]-3-fluoro-pyridine]	–	–	–	–	–	–	–	–	–	–	–	–	–	–	–	–	–	–	–	–	percentage damage caused to the plant, AMARE ([1]; 1000 g/ha): 5 (5=81-100%); percentage damage caused to the plant, ECHCG ([2]; 1000 g/ha): 3 (3=41-60%); percentage damage caused to the plant, IPOHE ([3]; 1000 g/ha): 2 (2=21-40%); percentage damage caused to the plant, LOLPE (Lolium perenne (LOLPE) [4]; 1000 g/ha): 1 (1=0-20%); percentage damage caused to the plant, SETFA (Setaria faberi (SETFA) [5]; 1000 g/ha): 2 (2=21-40%); percentage damage caused to the plant, SOLNI (Solanum nigrum (SOLNI) [6]; 1000 g/ha): 5 (5=81-100%)
Cc1ccc(C#N)nc1Oc1cccc(F)c1-c1cc(C(F)F)no1 [Compound A76]	–	–	–	–	–	–	–	–	–	–	–	–	2 (2=21-40%)	1 (1=0-20%)	3 (3=41-60%)	1 (1=0-20%)	–	–	–	–	percentage damage caused to the plant, LOLPE (Lolium perenne (LOLPE) [4]; 250 g/ha): 1 (1=0-20%); percentage damage caused to the plant, SOLNI (Solanum nigrum (SOLNI) [6]; 250 g/ha): 4 (4=61-80%)
FC(F)c1cc(-c2c(Br)cccc2Oc2ccc(Cl)cn2)on1 [Compound A100]	–	–	–	–	–	–	–	–	–	–	–	–	5 (5=81-100%)	5 (5=81-100%)	2 (2=21-40%)	5 (5=81-100%)	5 (5=81-100%)	2 (2=21-40%)	1 (1=0-20%)	5 (5=81-100%)	–
Cc1noc(-c2ccccc2Oc2ncc(Cl)cc2F)n1 [Compound A126]	–	–	–	–	–	–	–	–	–	–	–	–	–	–	–	–	5 (5=81-100%)	4 (4=61-80%)	1 (1=0-20%)	3 (3=41-60%)	–
Fc1cc(Cl)cnc1Oc1ccccc1-c1cc(C(F)F)on1 [Compound A163]	–	–	–	–	–	–	–	–	–	–	–	–	5 (5=81-100%)	5 (5=81-100%)	3 (3=41-60%)	5 (5=81-100%)	5 (5=81-100%)	4 (4=61-80%)	1 (1=0-20%)	5 (5=81-100%)	–
Fc1cc(Cl)cnc1Oc1ccccc1-n1cc(C(F)F)nn1 [Compound A169]	–	–	–	–	–	–	–	–	–	–	–	–	5 (5=81-100%)	5 (5=81-100%)	5 (5=81-100%)	5 (5=81-100%)	5 (5=81-100%)	5 (5=81-100%)	5 (5=81-100%)	5 (5=81-100%)	–

Reference: patent publication US12227495B2, “Herbicidal compounds” (SYNGENTA CROP PROTECTION AG, priority 2018, dated 2025)
